Earlier results in patent US20030035836A1, “Oral controlled release pharmaceutical composition for once-a-day therapy for the treatment and prophylaxis of cardiac and circulatory diseases” (priority 2001, published 2003).

Details: oral administration; considerable first pass metabolism

- absolute bioavailability: 25%
Compound: COc1ccccc1OCCNCC(O)COc1cccc2[nH]c3ccccc3c12 (racemic) [Carvedilol, 1-(9H-carbazol-4-yloxy)-3-[[2-(2-methoxyphenoxy)ethyl]amino]-2-propanol]
